The record followed here is US20210255193A1, “LYSINE REACTIVE PROBES AND USES THEREOF” (The Scripps Research Institute, priority 2017, published 2021).

For test [1], the target named is T1, PTRF Polymerase I and transcript release factor (Homo sapiens, UniProt Q6NZI2).
T1 construct: isoTOP-ABPP experiments performed in cell lysates (in vitro); endogenous in cells; host or cells: soluble proteome of human cancer cell lines (MDA-MB-231; Ramos and Jurkat also prepared)
T1 sequence (Q6NZI2 1-390): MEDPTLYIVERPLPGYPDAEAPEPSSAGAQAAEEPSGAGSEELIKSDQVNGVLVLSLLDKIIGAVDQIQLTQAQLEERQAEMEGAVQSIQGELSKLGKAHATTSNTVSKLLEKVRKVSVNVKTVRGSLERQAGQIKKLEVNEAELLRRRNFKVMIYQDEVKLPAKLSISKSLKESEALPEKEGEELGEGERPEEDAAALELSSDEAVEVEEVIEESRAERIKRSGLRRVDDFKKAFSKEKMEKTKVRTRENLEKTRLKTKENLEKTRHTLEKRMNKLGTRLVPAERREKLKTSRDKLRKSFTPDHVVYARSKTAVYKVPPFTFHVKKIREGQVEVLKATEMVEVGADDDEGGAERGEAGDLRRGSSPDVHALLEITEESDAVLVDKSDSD
Kind of test: competitive isoTOP-ABPP. The test is classed as binding. Particulars: 50 uM, 231 sol, in vitro. The gist of the method:
(§1)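 Cell lysate (0.5 ml) was pre-treated with fragment, 50 μM for activated esters or 100 μM for guanidinylating agents, versus DMSO, then labeled 1 h at ambient temperature with 0.1 mM STP-alkyne. Light/heavy TEV tags attached by CuAAC; R = DMSO/compound MS1 peak-area ratio, median per lysine.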

Test [2] addresses T2, EIF3G Eukaryotic translation initiation factor 3 subunit (Homo sapiens, UniProt O75821).
T2 construct: isoTOP-ABPP experiments performed in cell lysates (in vitro); endogenous in cells; host or cells: MDA-MB-231 soluble lysate
Kind of test: competitive isoTOP-ABPP. Type of test: binding. Particulars: 50 uM, 231 sol, in vitro. The method in brief: as §1

The target in test [3] is T3, PSMC6 26S protease regulatory subunit 10B (Homo sapiens, UniProt P62333).
T3 construct: isoTOP-ABPP experiments performed in cell lysates (in vitro); endogenous in cells; host or cells: soluble proteome of human cancer cell lines (MDA-MB-231, Ramos, Jurkat)
Kind of test: competitive isoTOP-ABPP. The test is classed as binding. Particulars: 50 uM, 231 sol, in vitro. The method in brief: as §1

Test [4] concerns the target T4, TARDBP TAR DNA-binding protein 43 (Homo sapiens, UniProt Q13148).
T4 construct: isoTOP-ABPP experiments performed in cell lysates (in vitro); endogenous in cells; host or cells: soluble proteome of human cancer cell lines (MDA-MB-231, Ramos, Jurkat)
Kind of test: competitive isoTOP-ABPP. Particulars: 50 uM, 231 sol, in vitro. The gist of the method:
as §1

The test system of test [5] is lysines in the human breast cancer cell MDA-MB-231 proteome. Kind of test: competitive isoTOP-ABPP, proteome-wide fragment reactivity. The test is classed as binding. Particulars: fragments 50-100 μM. The procedure:
In vitro covalent fragment treatment for isoTOP-ABPP. All compounds were made up as solutions in DMSO (100×) and were used at a final concentration of 50 μM for activated esters and 100 μM for guanidinylating agents. For each profiling sample, 0.5 ml of lysate was treated with 5 μl of the 100× compound stock solution or 5 μl of DMSO. Samples were treated with activated esters for
STP-alkyne labeling and click chemistry. For concentration-dependent reactivity measurements by isoTOP-ABPP, 0.5 ml proteome aliquots were treated at ambient temperature with 1 mM STP-alkyne 1 (5 μl of 100 mM stock in DMSO) and 0.1 mM STP alkyne 1 (5 μl of 10 mM stock in DMSO), respectively. For competitive isoTOP-ABPP, after in vitro fragment treatment (detailed above), the samples were labeled for 1 h at ambient temperature with 0.1 mM STP-alkyne 1 (5 μl of 10 mM stock in DMSO). Samples were conjugated by copper-mediated azide-alkyne cycloaddition (CuAAC) to either the light (1 mM STP-alkyne or fragment treated) or heavy (0.1 mM STP-alkyne or DMSO treated) TEV tags (10 μl of 5 mM stocks in DMSO, final concentration=100 μM) using tris(2-carboxyethyl)phosphine hydrochloride
R value calculation and processing. The ratios of light and heavy MS1 peaks for each unique peptide were quantified with a CIMAGE software using default parameters (3 MS1 acquisitions per peak and signal to noise threshold set to 2.5). For reactivity measurements by isoTOP-ABPP, the R value was calculated from the ratio of MS1 peak areas, comparing the 1 mM STP alkyne sample (light TEV tag) with the 0.1 mM STP alkyne sample (heavy TEV tag). For competitive isoTOP-ABPP, the R value was calculated from the ratio of MS1 peak areas, comparing the DMSO treated sample (heavy TEV tag) with the compound treated sample (light TEV tag). […] Ratios for unique peptide entries are calculated for each experiment; overlapping peptides with the same modified lysine (for example, different charge states, MudPIT chromatographic steps or tryptic termini) are grouped together and the median ratio is reported as the final ratio (R). The peptide ratios reported by CIMAGE were further filtered to ensure the removal or correction of low-quality ratios in each individual data set. The quality filters applied were the following: removal of half tryptic peptides; for ratios with high standard deviations from the median (90% of the median or above) the lowest ratio was taken instead of the median; removal of peptides with R=20 and only a single MS2 event triggered during the elution of the parent ion; manual annotation of all the peptides with ratios of 20, removing any peptides with low quality elution profiles that remained after the previous curation steps (only done for competitive isoTOP-ABPP).
Cross-data processing for fragment screening. For compound treated samples, biological replicates of the same condition were averaged, if the standard deviation was below 60% of the mean; otherwise, for lysines with at least one R value <4 for a particular compound, the lowest value of the ratio set was taken. For lysines, where all R values for a particular compound were ≥4, the average was reported. For peptides containing several possible modified lysines, the lysine with the highest number of quantification events was used for analysis and the remaining, redundant peptides were reported as alternative modification sites. Peptides included in the aggregate dataset (those used for further bioinformatics and statistical analyses) were required to have been quantified in 2 experiments for competitive isoTOP-ABPP. Lysines were categorized as liganded, if they had at least one ratio R≥4 (hit fragments). For liganded lysines with R=20 for all liganding events, lysines were required to have been quantified with R=20 in two separate experiments and were further required to have been quantified with R<20 in one additional experiment. […]

Take `O=C(CCc1cn(-c2ccccc2)nc1-c1ccccc1)Oc1ccc([N+](=O)[O-])cc1[N+](=O)[O-]` [fragment 29, 2,4-Dinitrophenyl 3-(1,3-diphenyl-1H-pyrazol-4-yl)propanoate]: the “isoTOP-ABPP reactivity ratio at lysine Q6NZI2_K326” value in test [1] is reported as 20.0. The “isoTOP-ABPP reactivity ratio at lysine O75821_K280” value in test [2] is 5.3. Besides, the “isoTOP-ABPP reactivity ratio at lysine P62333_K72” value in test [3] is 20.0. Moreover, the “isoTOP-ABPP reactivity ratio at lysine Q13148_K114” value in test [4] is 1.1. For the same compound, in test [5], the proteome-wide reactivity result was “much greater proteome-wide reactivity”.
